We go through two compounds from article PMC9571290, “Preliminary Structure–Activity Relationship Study of the MMV Pathogen Box Compound MMV675968 (2,4-Diaminoquinazoline) Unveils Novel Inhibitors of Trypanosoma brucei brucei” (Molecules, 2022).

Where two headings read alike, the source gives them in different places.

The test system of data set [1] is bloodstream forms of Trypanosoma brucei brucei. Description: resazurin-based antitrypanosomal inhibition assay. The format is cell-based. The conditions noted are these: Trypanosoma brucei. (Resazurin is reduced to fluorescent resorufin, in cell work by metabolically active cells.)
The nature of another data set: in vitro. The conditions noted are these: African green monkey.
In data set [2] the test system is bloodstream form of Trypanosoma brucei brucei. Description: parasite-killing kinetics and cidal or static effect. The format is cell-based. The following applies: for cidal or static effect after inhibitor removal: IC90 and IC99, removal at 4 h (10) or 24 h (7), subculture in inhibitor-free medium; for time to total inhibition of trypanosome growth: at IC99. The method, then:
Thus, they were selected, and their effect at various concentrations was assessed on the proliferation rate of the bloodstream form of Trypanosoma brucei brucei using microscopic cell count. […] After specified exposure time intervals (0, 4, 8, 12, 24, 30, 36, 48, 60, 72 h), the content of each well was harvested and counted on a Neubauer hemacytometer to determine the number of mobile parasites. The obtained values were used to plot the growth curves as parasite density (cells/mL) versus incubation time using GraphPad Prism 8.0 software.
Therefore, the ability of parasites to recover post exposure to inhibitors 10 and 7 was further evaluated. […] After that, the cells were washed three times with fresh complete medium by centrifugation at 2500 rpm for 7 min. Cell pellets were thereafter resuspended in fresh complete culture medium in a 24-well plate and subcultured under the same conditions for 68 h for compound 10 and 48 h for compound 7 to achieve the complete parasite growth pattern. Thereafter, cells were enumerated using the Neubauer cell counter at each time point. The assay was performed in duplicate, and the mean cell counts were plotted […] against time using GraphPad Prism 8.0 to assess the cidal or static effect of inhibitors.

Data set [3] relates to bloodstream forms of Trypanosoma brucei brucei. Description: cellular DNA fragmentation ELISA (apoptosis or cytolysis). The class given is cell-based. The following applies: 4 h; for apoptotic DNA fragmentation: lysate, at IC50. The method, then:
Basically, this assay tends to quantify apoptotic cell death by detection of […] dye-labeled DNA fragments in the cytoplasm of affected cells or to measure cell-mediated cytotoxicity by detection of dye-labeled DNA fragments released from damaged cells into the culture supernatant. […] BrdU-labeled parasites were harvested (by spinning at 2500 rpm for 7 min) followed by centrifugal washing using BrdU-free HMI-9 medium. […] The plate was then centrifuged at […] for 7 min, and the pellets were collected and kept at 4 °C until further use. For cytolysis measurement, the supernatants were added to a microplate coated with anti-DNA antibody to allow DNA capture from the test samples. The captured DNA fragments were subsequently denatured using microwave irradiation (LG NeoChef Charcoal Healthy Ovens) at 500 W for 5 min to separate DNA strands in view of displaying the BrdU. Thereafter, an anti-BrdU-antibody-POD (peroxidase) conjugate was added to detect the BrdU contained in the captured DNA fragments.
For apoptosis measurement, the cell pellets from each well were resuspended in 200 µL of the kit’s incubation buffer and incubated for 30 min. The lysed cells were centrifuged at […] for 10 min, and the supernatants were used as described above. Triton X-100 (Sigma Aldrich) was used as a positive control for both apoptosis and cell-mediated cytotoxicity. The absorbance values were proportionally correlated to the amount of DNA fragments in the treated cultures. Data are expressed as the mean ± SD of two independent experiments performed in duplicate and compared to the negative control (untreated parasites) at a significance level of p < 0.05.
(An ELISA detects its analyte on a solid surface through an enzyme-linked reagent.)

Data set [4] can be described thus: ferric ion reducing antioxidant power (FRAP). The following applies: Fe^3+-reducing activity. As for the experimental part: Iron is one of the vital elements for all parasites, including trypanosomes, as it plays a key role in pathogenesis and the host immune response. Therefore, iron bioavailability reducing agents to the parasite could be potential candidates for drug development against trypanosomiasis. To this end, we determined the capacity of the test compounds to reduce iron from ferric to ferrous status using the method described by Benzie et al.. Briefly, 25 µL of each compound (7 and 10) was added to 25 µL of a solution of Fe^3+ prepared at 1.2 mg/mL in distilled water in a 96-well microplate. The plate was incubated for 15 min at room temperature in darkness, after which 50 µL of ortho-phenanthroline (0.2% in methanol) was added to achieve final compound concentrations ranging from 400 µM to 0.19 µM. Plates were reincubated for 15 min, and the absorbance was measured at 510 nm. Ascorbic acid was used as a positive control and tested at concentrations ranging from 100 to 0.048 μg/mL. The median reducing concentration (RC50) values of compounds were determined through sigmoidal concentration–response curves using GraphPad Prism version 8.0 software.

The mark [5] stands for this setting: Table 4, analogs of MMV675968, solid material, read-out: IC50 ± SD T. b. b.
[6] abbreviates: Table 4, negative log of IC50 in molar, read-out: pIC50 T. b. b. (converted).

Consider `COc1ccccc1NCc1ccc2nc(N)nc(N)c2c1` [Analog 7, 6-(((2-methoxyphenyl)amino)methyl)quinazoline-2,4-diamine], for which the IC50 in data set [1] (setting [5]) was determined as 60 ± 8 nM. Moreover, in data set [1] (setting [6]), the IC50 was 60.3 nM. Moreover, in “in vitro”, the CC50 at 48 h was determined as 24800 ± 870 nM. In data set [2], the “cidal or static effect after inhibitor removal” value is given as “static effect” and the “time to total inhibition of trypanosome growth” value is recorded as at most 24 h. In addition, the “induction of cell lysis (cytolysis)” value in data set [3] (culture supernatant) is recorded as “did not exert any effect”. Also, the “apoptotic DNA fragmentation” value in data set [3] was “did not exert any effect”. For the same compound, in data set [4], the “median reducing concentration (RC50)” value is given as 96.37 µM.
With `Nc1nc(N)c2cc(CNc3cc(Cl)ccc3Cl)ccc2n1` [Analog 10, 6-(((2,5-dichlorophenyl)amino)methyl)quinazoline-2,4-diamine], the IC50 in data set [1] (setting [5]) turned out to be 45 ± 5 nM. Also, in data set [1] (setting [6]), the IC50 was 45.7 nM. For the same compound, the CC50 at 48 h in the data set “in vitro” was found to be 78200 ± 800 nM. Also, in data set [2], the “cidal or static effect after inhibitor removal” value is listed as “cidal effect” and the “time to total inhibition of trypanosome growth” value was at most 4 h. In addition, the “apoptotic DNA fragmentation” value in data set [3] is “significant inducing effect”. Further, the “median reducing concentration (RC50)” value in data set [4] is above 400 µM.
